One assay addresses T1, human H1 receptor (Homo sapiens, UniProt P35367).
T1 construct: purchased Furoscreen S A, Brussels, Belgium (so in the source); host or cells: CHO-K1
The assay can be described thus: Histamine H1 receptor binding, competition displacement of [3H]-pyrilamine. The following applies: 1 nM [3H]-pyrilamine; membranes from recombinant CHO-K1 cells expressing the human H1 receptor; 1 hour at room temperature; read-out: H1 pKi/ [1328_S] (converted). Here is the method:
Histamine H1 receptor binding activity of compounds of the invention was assessed by competition displacement of 1 nM [3H]-pyrilamine (Amersham, Bucks, Product code TRK 608, specific activity 30Ci/mmol) to 2 μg membranes prepared from recombinant CHO-K1 cells expressing the human H1 receptor (Furoscreen S A, Brussels, Belgium, product code ES-390-M) in assay buffer (50 mM Tris pH 7.4 containing 2 mM MgCl2, 250 mM sucrose and 100 mM NaCl) for 1 hour at room temperature.

A further assay deals with T2, CCR3 (Homo sapiens, UniProt P51677).
T2 construct: Human eosinophils were isolated from EDTA anticoagulated peripheral blood; endogenous in cells; host or cells: human peripheral blood eosinophils
T2 sequence (P51677 1-355): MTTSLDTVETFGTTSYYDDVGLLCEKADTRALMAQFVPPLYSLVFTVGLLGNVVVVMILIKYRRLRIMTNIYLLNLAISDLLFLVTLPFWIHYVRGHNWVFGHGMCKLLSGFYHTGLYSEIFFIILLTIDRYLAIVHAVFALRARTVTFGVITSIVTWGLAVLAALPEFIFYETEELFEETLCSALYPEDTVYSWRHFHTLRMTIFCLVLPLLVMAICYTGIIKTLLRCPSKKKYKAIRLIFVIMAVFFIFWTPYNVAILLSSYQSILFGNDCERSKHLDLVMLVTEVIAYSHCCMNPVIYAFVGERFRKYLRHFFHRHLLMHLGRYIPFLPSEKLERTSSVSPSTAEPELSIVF
The assay can be described thus: Human eosinophil chemotaxis (eotaxin mediated). It counts as cell-based. The following applies: compound at 1 μM. The protocol: Human Eosinophil Chemotaxis
Human eosinophils were isolated from EDTA anticoagulated peripheral blood as previously described (Hansel et al., J. Immunol. Methods, 1991, 145, 105-110). The cells were resuspended at 10×10^6 ml^−1 in RPMI containing 200 μg/ml penicillin, 200 μg/ml streptomycin sulfate and supplemented with 10% HIFCS, at room temperature.
Eosinophils (700 μl) were pre-incubated for 15 mins at 37° C. with 7 μl of either vehicle or compound (100× required final concentration in 10% DMSO). The chemotaxis plate (ChemoTx, 3 μm pore, Neuroprobe) was loaded by adding 28 μl of a concentration of eotaxin 0.1 to 100 nM (a selective CCR3 agonist over this concentration range) containing a concentration of a compound according to the Examples or solvent to the lower wells of the chemotaxis plate. The filter was then placed over the wells and 25 μl of eosinophil suspension were added to the top of the filter. The plate was incubated for 1 hr at 37° C. in a humidified incubator with a 95% air/5% CO2 atmosphere to allow chemotaxis.
The medium, containing cells that had not migrated, was carefully aspirated from above the filter and discarded. The filter was washed once with phosphate buffered saline (PBS) containing 5 mM EDTA to remove any adherent cells. […] The number of eosinophils migrating was quantified according to the method of Strath et al., J. Immunol. […]

The inhibition is how much of the control response was suppressed. Higher therefore signals a response far below the control.

T1 sequence (P35367 whole entry): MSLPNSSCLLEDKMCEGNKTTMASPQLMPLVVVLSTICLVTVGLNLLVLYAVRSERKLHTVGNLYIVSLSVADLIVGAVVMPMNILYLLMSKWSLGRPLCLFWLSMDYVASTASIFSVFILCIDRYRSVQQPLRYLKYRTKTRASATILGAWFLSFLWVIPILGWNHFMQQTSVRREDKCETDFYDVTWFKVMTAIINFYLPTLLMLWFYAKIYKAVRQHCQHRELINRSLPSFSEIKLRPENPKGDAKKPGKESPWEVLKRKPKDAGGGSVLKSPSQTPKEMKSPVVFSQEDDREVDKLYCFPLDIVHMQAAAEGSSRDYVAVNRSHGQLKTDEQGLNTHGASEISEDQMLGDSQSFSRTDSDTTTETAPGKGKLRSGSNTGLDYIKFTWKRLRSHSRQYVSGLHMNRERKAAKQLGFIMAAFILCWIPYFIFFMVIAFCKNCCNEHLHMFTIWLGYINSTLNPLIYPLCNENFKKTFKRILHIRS

Consider `O=C(c1c[nH]c(=O)c2ccccc12)N1CCO[C@H](CN2CCC(Oc3ccc(Cl)c(Cl)c3)CC2)C1` [Example 73], for which the Ki at human H1 receptor was 0.00794 µM. Further, the inhibition at 1 µM against CCR3 was over 75%.

Regarding `CS(=O)(=O)c1cccc(C(=O)N2CCOC(CN3CCC(Oc4ccc(Cl)c(Cl)c4)CC3)C2)c1` (stereo not drawn) [Example 4, 2-{[4-(3,4-dichlorophenoxy)piperidin-1-yl]methyl}-4-[3-(methylsulfonyl)benzoyl]morpholine], the Ki at human H1 receptor was 0.1 µM.

On to `CS(=O)(=O)c1cccc(C(=O)N2CCO[C@@H](CN3CCC(Oc4ccc(Cl)c(Cl)c4)CC3)C2)c1` [Example 5, (2S)-2-{[4-(3,4-Dichlorophenoxy)piperidin-1-yl]methyl}-4-[3-(methylsulfonyl)benzoyl]morpholine], for which the Ki on human H1 receptor was 0.02 µM. For the same compound, the inhibition at 1 µM at CCR3 was over 75%.

As to `O=C(c1cn2cc(F)ccc2n1)N1CCOC(CN2CCC(Oc3ccc(Cl)c(Cl)c3)CC2)C1` (stereo not drawn) [Example 3, 2-[(2-{[4-(3,4-dichlorophenoxy)piperidin-1-yl]methyl}morpholin-4-yl)carbonyl]-6-fluoroimidazo[1,2-a]pyridine], the Ki on human H1 receptor was 0.0126 µM.

Source of the values: patent US7238691B2, “Piperidine derivatives and their use as modulators of chemokine (especially CCR3) activity” (AstraZeneca AB, priority 2001, dated 2007).
